Earlier results on 13 molecules are cited in US20160215053A1, “CXCL12 (CHEMOKINE (C-X-C MOTIF) LIGAND 12) AND IGFBP2 INHIBITORS FOR THE APPLICATION IN THE TREATMENT OF DIABETES MELLITUS ASSOCIATED PANCREATIC CANCER” (priority 2013, published 2016).

“Also recorded” adds a separate entry of the source. Where two headings read alike, the source gives them in different places. Where no end group is shown, it is not given here.

One data set deals with PSC. To be noted: literature references 19-31.
The next data set deals with BxPC3 cells. To be noted: reference 40.

`CC=O` [Acetaldehide]: the “Effect on PSC” value with PSC is given as “increased αSMA expression”.

As for `CCO` [Ethanol], in the data set on PSC, the “Effect on PSC” value is on record as “type-1 collagen production; also recorded: increased αSMA expression”.

`CCCCC[C@H](O)/C=C/[C@H]1[C@H](O)CC(=O)[C@@H]1C/C=C\CCCC(=O)O` [Prosztaglandin E2]: the “Effect on PSC” value in the data set with PSC is given as “increased proliferation, migration”.

For the molecule `Nc1ccn([C@@H]2O[C@H](CO)[C@@H](O)C2(F)F)c(=O)n1` [gemcitabine], the “Proportion of cancer cells undergoing gemcitabine induced apoptosis” value in the data set with BxPC3 cells (BxPC3 cells treated with hPSC-CM) is listed as 9.4%; with BxPC3 cells (BxPC3 cells, without hPSC-CM treatment) it was 38.9%.

For “Galektin-1: factor that induces PSC activation/trans-differentiation”, the “Effect on PSC” value with PSC was “increased proliferation”.

Consider PDGF, for which the “Effect on PSC” value in the data set with PSC (cell proliferation) is “increased proliferation”; in the data set on PSC (fibronectin synthesis), “increased FN synthesis”.

Regarding “TGFα: factor that induces PSC activation/trans-differentiation”, in the data set on PSC, the “Effect on PSC” value is “increased proliferation, migration”.

Regarding TNFα, the “Effect on PSC” value in the data set with PSC is on record as “increased αSMA expression”.

For “bFGF: factor that induces PSC activation/trans-differentiation”, the “Effect on PSC” value in the data set on PSC is reported as “increased proliferation”.

Turning to “gasztrin: factor that induces PSC activation/trans-differentiation (QGPWLEEEEEAYGWMDF; ends and bridges not checked; UniProt P01350 76-92, looked up)”, the results for the “Effect on PSC” value in the data set with PSC (cell proliferation) and with PSC (collagen synthesis) were “decreased proliferation” and “increased collagen synthesis,”, respectively.

B1: Activin A: factor that induces PSC activation/trans-differentiation (protein, UniProt P08476 311-426, looked up)
Inhibin beta A chain: GLECDGKVNICCKKQFFVSFKDIGWNDWIIAPSGYHANYCEGECPSHIAGTSGSSLSFHSTVINHYRMRGHSPFANLKSCCVPTKLRPMSMLYYDDGQNIIKKDIQNMIVEECGCS
modifications: Inhibin beta A chain
As to B1, the “Effect on PSC” value with PSC was “increased αSMA expression”.

B2: CCK: factor that induces PSC activation/trans-differentiation (peptide, UniProt P06307 21-115, looked up)
Cholecystokinin: QPVPPADPAGSGLQRAEEAPRRQLRVSQRTDGESRAHLGALLARYIQQARKAPSGRMSIVKNLQNLDPSHRISDRDYMGWMDFGRRSAEEYEYPS
modifications: Cholecystokinin
In the case of B2, the “Effect on PSC” value in the data set with PSC (cell proliferation) is recorded as “decreased proliferation”; with PSC (collagen synthesis), “increased collagen synthesis,”.

B3: IL-10: factor that induces PSC activation/trans-differentiation (protein, UniProt P22301 19-178, looked up)
Interleukin-10: SPGQGTQSENSCTHFPGNLPNMLRDLRDAFSRVKTFFQMKDQLDNLLLKESLLEDFKGYLGCQALSEMIQFYLEEVMPQAENQDPDIKAHVNSLGENLKTLRLRLRRCHRFLPCENKSKAVEQVKNAFNKLQEKGIYKAMSEFDIFINYIEAYMTMKIRN
For B3, the “Effect on PSC” value in the data set with PSC is “increased type-1 collagen production”.
